Results published in patent publication US10413557B2, “Prodrugs of 17.BETA.-HSD1-inhibitors” (FORENDO PHARMA LTD, priority 2014, dated 2019).
Values after ≈ are worked out from the molar mass of the structure shown.

Experiments:
[1] = target: T1, recombinant human 17β-HSD1 (Homo sapiens, UniProt P14061); test: Inhibition of recombinant human 17β-HSD1 (conversion of 3H-estrone to estradiol, HPLC); assay type: biochemical; conditions: inhibitor 1 μM; 30 nM estrone, 1 mM NADPH, 30 min RT; read-out: 17β-HDS1 Inhibition % at 1 μM
T1 construct: made in house; host or cells: Sd9 (Sf9) insect cells, baculovirus (Bac to Bac Expression System)
T1 sequence (P14061 1-328): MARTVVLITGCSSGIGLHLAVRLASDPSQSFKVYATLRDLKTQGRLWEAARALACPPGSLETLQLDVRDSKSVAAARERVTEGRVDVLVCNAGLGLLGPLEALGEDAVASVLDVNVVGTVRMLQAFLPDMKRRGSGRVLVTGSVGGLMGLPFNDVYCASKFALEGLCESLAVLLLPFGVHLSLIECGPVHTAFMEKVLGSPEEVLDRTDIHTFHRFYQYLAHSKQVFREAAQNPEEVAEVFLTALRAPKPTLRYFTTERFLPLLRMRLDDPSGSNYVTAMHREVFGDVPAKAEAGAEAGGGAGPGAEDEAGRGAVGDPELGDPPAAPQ
Method: 17β-HSD1 production and isolation: Recombinant baculovirus was generated by the “Bac to Bac Expression System” (Invitrogen). Recombinant bacmid was transfected to Sd9 insect cells using “Cellfectin Reagent” (Invitrogen). 60 h later cells were harvested; the microsomal fraction was isolated as described by Puranen, T. J., Poutanen, M. H., Peltoketo, H. E., Vihko, P. T. and Vihko, R. K. (1994) Site-directed mutagenesis of the putative active site of human 17 β-hydroxysteroid dehydrogenase type 1. Biochem. J. 304: 289-293. Aliquots were stored frozen until determination of enzymatic activity.
Assay—Inhibition of recombinant human 17β-HSD1: Protein homogenate (0.1 μg/ml) was incubated in 20 mM KH2PO4 pH 7.4 with 30 nM estrone (including 800 000 cpm/ml of ^3H-estrone) and 1 mM NADPH for 30 min at RT, in the presence of the potential inhibitor at concentrations 1 μM or 0.1 μM. Inhibitor stock solutions were prepared in DMSO. Final concentration of DMSO was adjusted to 1% in all samples. The enzyme reaction was stopped by addition of 10% trichloroacetic acid (final concentration). Samples were centrifuged in a microtiter plate at 4000 rpm for 10 min. Supernatants were applied to reverse phase HPLC on a Waters Symmetry C18 column, equipped with a Waters Sentry Guard column. Isocratic HPLC runs were performed at RT at a flow rate of 1 ml/min in acetonitrile:water 48:52 as running solvent. Radioactivity was monitored in the eluate by a Packard Flow Scintillation Analyzer. Total radioactivity for estrone and estradiol were determined in each sample and percent conversion of estrone to estradiol was calculated according to the following formula:
(§1) Percent inhibition was calculated flowingly: % inhibition=100−% conversion

[2] = target: T2, recombinant human 17β-HSD2 (Homo sapiens, UniProt P37059); test: Inhibition of recombinant human 17β-HSD2 (conversion of 3H-estradiol to estrone, HPLC); assay type: biochemical; conditions: inhibitor 1 μM; 50 nM estradiol, 1 mM NADH, 30 min RT
T2 construct: made in house; host or cells: Sd9 (Sf9) insect cells, baculovirus (Bac to Bac Expression System)
T2 sequence (P37059 1-387): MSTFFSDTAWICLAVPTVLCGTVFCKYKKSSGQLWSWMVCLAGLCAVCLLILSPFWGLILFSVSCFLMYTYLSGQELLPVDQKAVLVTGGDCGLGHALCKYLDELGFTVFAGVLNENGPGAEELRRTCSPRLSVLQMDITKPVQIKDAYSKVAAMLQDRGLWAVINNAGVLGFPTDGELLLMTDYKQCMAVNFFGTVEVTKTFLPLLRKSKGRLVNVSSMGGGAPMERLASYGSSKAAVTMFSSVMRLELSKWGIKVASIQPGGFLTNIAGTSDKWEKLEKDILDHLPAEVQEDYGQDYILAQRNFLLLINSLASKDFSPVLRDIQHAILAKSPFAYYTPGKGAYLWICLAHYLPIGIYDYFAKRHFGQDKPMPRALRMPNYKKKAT
Method: 17β-HSD2 production and isolation: Similarly to 17β-HSD1 the Recombinant baculovirus was generated by the “Bac to Bac Expression System” (Invitrogen). Recombinant bacmid was transfected to Sd9 insect cells using “Cellfectin Reagent” (Invitrogen). 60 h later cells were harvested and supernatant were fractionated by the following protocol: • cells were dissolved into 40 ml of A-buffer (40 mM TRIS, pH8.0, 20% glycerol, 20 μM NAD, 0.4 mM PMSF, 150 mM NaCl, 0.5% dodecyl-β-maltoside+protease inhibitor cocktail) • cells were sonicated • lysate was incubated on ice for 15 min • lysate was centrifuged 5000 rpm 15 min, +4° C. • centrifugation of the supernatant 180 000 g 30 min, +4° C. • pellet was dissolved into 8 ml of A-buffer • not resuspended material was removed by centrifugation 5000 rpm 15 min, +4° C. • the clear supernatant was divided into 100 μl aliquots and were stored frozen until determination of enzymatic activity.
The amount of 17β-HSD2 was analysed by immunoblotting and total protein concentration of each extract batch was determined.
Assay—Inhibition of recombinant human 17β-HSD2: Protein homogenate (4 μg/ml) was incubated in 20 mM KH2PO4 pH 8.5 with 50 nM estradiol (including 800 000 cpm/ml of ^3H-estradiol) and 1 mM […] for 30 min at RT, in the presence of the potential inhibitor at concentrations 1 μM or 0.1 μM. Inhibitor stock solutions were prepared in DMSO. Final concentration of DMSO was adjusted to 1% in all samples. The enzyme reaction was stopped by addition of 10% trichloroacetic acid (final concentration). Samples were centrifuged in a microtiter plate at 4000 rpm for 10 min. Supernatants were applied to reverse phase HPLC on a Waters Symmetry C18 column, equipped with a Waters Sentry Guard column. Isocratic HPLC runs were performed at RT at a flow rate ofl ml/min in acetonitrile:water 48:52 as running solvent. Radioactivity was monitored in the eluate by a Packard Flow Scintillation Analyzer. Total radioactivity for estrone and estradiol were determined in each sample and percent conversion of estradiol to estrone was calculated according to the following formula:
as §1

[3] = Metabolic stability assay; assay type: in vitro ADME; conditions: human liver homogenate or microsomes
Method: The in vitro metabolic stability of the parent compounds was determined for exemplified compounds using human liver microsome and homogenate incubations. The incubation time points used with or without appropriate cofactors were 0 min and 60 min. Samples were collected at both time points and substrates were detected using LC/PDA/TOF-MS. In vitro metabolic stability (% remaining after 60 min in human liver homogenate or microsomes) of the compounds were calculated and the results are summarized in Table 4.

Aqueous solubility test = assay type: physicochemical; conditions: for solubility: buffer solution, aqueous buffer, thermodynamic from solid, rt, buffer pH 7.4, stirred 48 hours or less, HPLC
Method: The pH of the mixtures was held constant during the study. Excess amounts or a known amount of each component are added to 1 or 0.5 ml of buffer solution and the mixtures were stirred at rt for 48 hours or less, filtered (0.45 μm Millipore) and analyzed by HPLC.

[4] = Determination of bioavailability: oral pharmacokinetics in Cynomolgus monkeys; assay type: in vivo; conditions: dose corresponding to 10 mg/kg of parent drug, 0.5% Carboxymethyl cellulose in water
Method: This study was performed in order to determine bioavailability of the present compounds in vivo. All animal experiments are performed in accordance with standards of ethical conduct and appropriate institutional animal care and use policies.
The pharmacokinetic studies of the compounds of the invention were assessed in Cynomolgus monkeys. The study compounds were administrated orally at a dose level corresponding to 10 mg/kg of parent drug. The common aqueous formulation, 0.5% Carboxymethyl cellulose in water, was used as a vehicle. The blood samples were obtained by direct venipuncture at pre-dose, and ten sequential time points after oral administration.
The quantitative bioanalysis of plasma samples were performed in accordance with the guidance Bioanalytical Method Validation (FDA, 2001) and the Guideline on Bioanalytical Method Validation (European Medicines Agency, 2011). Analytical method was optimized for suitable chromatographic (peak shape, retention) and mass spectrometric (ionization efficiency) properties.
A non-compartmental pharmacokinetic analysis was carried out with individual plasma concentration-time curves using WinNonlin® Professional Version 6.3 (Pharsight Corporation): […]
The area under the concentration-time curve from 0 to the last measurable concentration (AUCt) was calculated using the linear-log trapezoidal rule.

Compound | inhibition at 1 µM [1] | inhibition at 1 µM [2] | In vitro metabolic stability, % remaining after 60 min [3] | solubility (Aqueous solubility test) | aqueous solubility, in words (Aqueous solubility test; comment on Table 5, compared with parent VIV-1) | Cmax [4] | AUCt ([4]; 0 to last measurable concentration)
CO/N=C1\C[C@@H](CCC(=O)Nc2ncc(C)s2)C2C3CCc4cc(O)ccc4C3CC[C@]12C (stereo partly drawn) [VIV-1, 3-{(13S,15R)-3-Hydroxy-17-[(E)-methoxyimino]-13-methyl-7,8,9,11,12,13,14,15,16,17-decahydro-6H-cyclopenta[a]phenanthren-15-yl}-N-(5-methylthiazol-2-yl)propanamide] | 95% | 4% | 73% | < 0.52 µg/mL | – | – | –
CO/N=C1\C[C@@H](CCC(=O)Nc2ncc(C)s2)C2C3CCc4cc(OC(=O)CN)ccc4C3CC[C@]12C (stereo partly drawn) [Compound 3, Aminoacetic acid (13S,15R)-13-methyl-17[(E)-methoxyimino]-15-[2-(5-methyl-thiazol-2-ylcarbamoyl)-ethyl]-7,8,9,11,12,13,14,15,16,17-decahydro-6H-cyclopenta[a]phenanthren-3-yl ester] | – | – | – | 2.37 µg/mL (≈ 4.52 µM) | improved aqueous solubility | – | –
Phosphoric acid mono-{(13S,15R)-17-[(E)-methoxyimino]-13-methyl-15-[2-(5-methylthiazol-2-ylcarbamoyl)ethyl-7,8,9,11,12,13,14,15,16,17-decahydro-6H-cyclopenta[a]phenanthren-3-yl} ester disodium salt [Compound 1a] | – | – | – | – | – | 286 ng/mL | 3170 ng·h/mL
